This is an account of results in US11098288B2, “D-type amino acid dehydrogenase” (Kureha Corporation, priority 2017, dated 2021).

The subject of data set [1] is Wild type D-type amino acid dehydrogenase derived from T. lipolytica. The data set can be described thus: D-amino acid synthesis activity (amination of 2-oxo acid), wild type enzyme. The format is biochemical, Thermosyntropha lipolytica. As to conditions: 5 mM 2-oxoacid, 200 mM ammonium chloride, glycine buffer pH 9.5, 50° C.; for D-amino acid synthesis activity (specific activity), Wild type, NADH: NADH 0.1 mM; for D-amino acid synthesis activity (specific activity), Wild type, NADPH: NADPH 0.1 mM. The method, then:
(§1) The activity of the enzyme was measured by determining a decrease in absorbance at wavelength of 340 nm of NADPH or NADH […] by the catalytic reaction of the enzyme and determining the enzymatic activity by the determined decrease in absorbance as an indicator. […] The absorbance was measured by an ultraviolet-visible spectrophotometer UV-1800 (available from SHIMADZU). […]

Data set [2] has as its system Five-mutation enzyme (five-mutation D-type amino acid dehydrogenase, SEQ ID NO: 14). The data set can be described thus: D-amino acid synthesis activity (amination of 2-oxo acid), five-mutation enzyme. In kind it is biochemical, Thermosyntropha lipolytica. As to conditions: 5 mM 2-oxoacid, 200 mM ammonium chloride, glycine buffer pH 9.5, 50° C.; for D-amino acid synthesis activity (specific activity), Five-mutation enzyme, NADH: NADH 0.1 mM; for D-amino acid synthesis activity (specific activity), Five-mutation enzyme, NADPH: NADPH 0.1 mM. The method, then: The PCR reaction solution was prepared so as to contain 0.3 μM of each of the following primers and 50 ng of the above-described template DNA.
After PCR, 2 μL of DpnI was added to the reaction solution and treated at 37° C. for 1 hour, and E. coli DH5α was transformed using the solution after treatment. Transformed cells were coated on an LB agar plate containing antibiotic ampicillin (final concentration 100 mg/L) and cultured at 37° C. for 16 hours. The generated colonies were harvested and cultured in LB liquid medium containing ampicillin overnight. The strains were collected from the culture solution by centrifugation, and five-mutation D-type amino acid dehydrogenase/pET100 was collected according to the manufacturer's protocol using AccuPrep Plasmid Mini Extraction Kit (BIONEER).
as §1

In data set [3] the test system is Six-mutation enzyme (Asp94Ser, Met154Leu, Val158Gly, Thr173Ile, Arg183Met, His229Asn; SEQ ID NO: 8). The data set can be described thus: D-amino acid synthesis activity (amination of 2-oxo acid), six-mutation enzyme. The format is biochemical, Thermosyntropha lipolytica. As to conditions: 5 mM 2-oxoacid, 200 mM ammonium chloride, glycine buffer pH 9.5, 50° C.; for D-amino acid synthesis activity (specific activity), Six-mutation enzyme, NADH: NADH 0.1 mM; for D-amino acid synthesis activity (specific activity), Six-mutation enzyme, NADPH: NADPH 0.1 mM. How it is done: Using this as a template, the gene of the enzyme was amplified by PCR using “PrimeSTAR Max DNA Polymerase” available from Takara Bio Inc. PCR was performed according to the manufacturer's instructions. The PCR reaction solution was prepared so as to contain 0.3 μM of each of the following primers and 50 ng of the above-described template DNA.
According to the manufacturer's protocol, the purified amplification product was incorporated into a pET100 vector (I available from Invitrogen) of a plasmid for protein expression to construct a six-mutation D-type amino acid dehydrogenase/pET100. The expression vector was constructed so as to incorporate a six-mutation D-type amino acid dehydrogenase gene derived from T. lipolytica downstream of the T7 promoter and […], and upstream of the T7 terminator.
as §1

For data set [4], the target named is D-type amino acid dehydrogenase derived from T. lipolytica (Thermosyntropha lipolytica, UniProt A0A1M5M5H3). The data set can be described thus: Coenzyme dependence by activity-staining after disc gel electrophoresis. In kind it is biochemical. As to conditions: 10 mM meso-diaminopimelic acid, 1.25 mM coenzyme, pH 8.0, 50° C., 30 minutes. The method, then:
The coenzyme dependence of the enzyme was evaluated by an activity-staining method due to an enzymatic catalytic reaction. More specifically, an appropriate amount of enzyme solution was subjected to disc gel electrophoresis. […] A reaction formula is indicated below. In the following reaction formula, the D-type amino acid dehydrogenase is referred to as “meso-DAPDH”.

Substrate in data set [5]: N[C@H](CCC[C@H](N)C(=O)O)C(=O)O
The data set can be described thus: purified protein, by the assay type. The note with it: other: meso-diaminopimelic acid as substrate, 50° C., values for meso-diaminopimelic acid determined using NADP^+ as the coenzyme.

Substrate in data set [6]: NC(=O)c1ccc[n+]([C@@H]2O[C@H](COP(=O)([O-])OP(=O)(O)OC[C@H]3O[C@@H](n4cnc5c(N)ncnc54)[C@H](O)[C@@H]3O)[C@@H](O)[C@H]2O)c1
Description: purified protein, by the assay type. In kind it is biochemical, Thermosyntropha lipolytica. As to conditions: other: meso-diaminopimelic acid as substrate, 50° C., values for meso-diaminopimelic acid determined using NADP^+ as the coenzyme.
Description: The absorbance was measured by an ultraviolet-visible spectrophotometer UV-1800 (available from SHIMADZU). The specific activity of the enzyme was calculated from the concentration of the enzyme used and enzyme dilution rate using the obtained absorbance change and the following equation.
A turnover number (kcat) as a reaction rate parameter, a Michaelis constant (Km) value, and catalytic efficiency (kcat/Km) were determined with Igor Pro ver. 3.14 (available from WaveMetrics) based on Michaelis-Menten equation after the initial velocities were plotted against different substrates and coenzyme concentrations.

Turning to `O=C(O)CCC(=O)C(=O)O` [2-oxoglutaric acid/D-glutamic acid, 2-oxoglutaric acid], in data set [1], the “D-amino acid synthesis activity (specific activity), Wild type, NADH” value is “No Activity” and the “D-amino acid synthesis activity (specific activity), Wild type, NADPH” value stood at 0.27 ± 0.010 µmol/min/mg. Moreover, in data set [2], the “D-amino acid synthesis activity (specific activity), Five-mutation enzyme, NADH” value is “No Activity” and the “D-amino acid synthesis activity (specific activity), Five-mutation enzyme, NADPH” value is 0.039 ± 0.0073 µmol/min/mg. For the same molecule, in data set [3], the “D-amino acid synthesis activity (specific activity), Six-mutation enzyme, NADH” value is on record as “No Activity” and the “D-amino acid synthesis activity (specific activity), Six-mutation enzyme, NADPH” value amounted to 0.067 ± 0.0046 µmol/min/mg.

`CC(C)C(=O)C(=O)O` [2-oxo-3-methylbutanoic acid/D-valine, 2-oxo-3-methylbutanoic acid]: in data set [1], the “D-amino acid synthesis activity (specific activity), Wild type, NADH” value worked out at 0.43 ± 0.0026 µmol/min/mg and the “D-amino acid synthesis activity (specific activity), Wild type, NADPH” value was found to be 0.33 ± 0.0094 µmol/min/mg. For the same molecule, in data set [2], the “D-amino acid synthesis activity (specific activity), Five-mutation enzyme, NADH” value stood at 0.18 ± 0.00078 µmol/min/mg and the “D-amino acid synthesis activity (specific activity), Five-mutation enzyme, NADPH” value is 0.11 ± 0.0034 µmol/min/mg. For the same molecule, in data set [3], the “D-amino acid synthesis activity (specific activity), Six-mutation enzyme, NADH” value came out at 0.18 ± 0.00089 µmol/min/mg and the “D-amino acid synthesis activity (specific activity), Six-mutation enzyme, NADPH” value came to 0.058 ± 0.0027 µmol/min/mg.

Consider `O=C(O)C(=O)Cc1ccccc1` [2-oxo-3-phenylpropanoic acid], for which, in data set [1], the “D-amino acid synthesis activity (specific activity), Wild type, NADH” value turned out to be 0.020 ± 0.0053 µmol/min/mg and the “D-amino acid synthesis activity (specific activity), Wild type, NADPH” value is reported as “No Activity”. For the same molecule, in data set [2], the “D-amino acid synthesis activity (specific activity), Five-mutation enzyme, NADH” value is on record as “No Activity” and the “D-amino acid synthesis activity (specific activity), Five-mutation enzyme, NADPH” value came to 0.068 ± 0.0039 µmol/min/mg. Also, in data set [3], the “D-amino acid synthesis activity (specific activity), Six-mutation enzyme, NADH” value is “No Activity” and the “D-amino acid synthesis activity (specific activity), Six-mutation enzyme, NADPH” value is 0.036 ± 0.0037 µmol/min/mg.

On to `CSCCC(=O)C(=O)O` [2-oxo-4-(methylthio) butanoic acid], for which, in data set [1], the “D-amino acid synthesis activity (specific activity), Wild type, NADH” value came to 0.0033 ± 0.0016 µmol/min/mg and the “D-amino acid synthesis activity (specific activity), Wild type, NADPH” value came to 0.059 ± 0.0065 µmol/min/mg. Besides, in data set [2], the “D-amino acid synthesis activity (specific activity), Five-mutation enzyme, NADH” value is reported as “No Activity” and the “D-amino acid synthesis activity (specific activity), Five-mutation enzyme, NADPH” value was found to be 0.18 ± 0.0022 µmol/min/mg. In addition, in data set [3], the “D-amino acid synthesis activity (specific activity), Six-mutation enzyme, NADH” value was “No Activity” and the “D-amino acid synthesis activity (specific activity), Six-mutation enzyme, NADPH” value came out at 0.089 ± 0.0038 µmol/min/mg.

For NADP^+, in data set [4], the “coenzyme utilization (activity-staining)” value is “utilized”.

Take `NC(=O)c1ccc[n+]([C@@H]2O[C@H](COP(=O)([O-])OP(=O)(O)OC[C@H]3O[C@@H](n4cnc5c(N)ncnc54)[C@H](O)[C@@H]3O)[C@@H](O)[C@H]2O)c1` [NAD^+]: the “coenzyme utilization (activity-staining)” value in data set [4] is “utilized”.

Take `O=C(O)CC(=O)C(=O)O` [2-oxobutanedioic acid/D-aspartic acid, 2-oxobutanedioic acid]: in data set [1], the “D-amino acid synthesis activity (specific activity), Wild type, NADH” value worked out at 0.43 ± 0.015 µmol/min/mg and the “D-amino acid synthesis activity (specific activity), Wild type, NADPH” value came out at 5.7 ± 0.60 µmol/min/mg. Also, in data set [2], the “D-amino acid synthesis activity (specific activity), Five-mutation enzyme, NADH” value worked out at 0.14 ± 0.014 µmol/min/mg and the “D-amino acid synthesis activity (specific activity), Five-mutation enzyme, NADPH” value is 0.60 ± 0.035 µmol/min/mg. Further, in data set [3], the “D-amino acid synthesis activity (specific activity), Six-mutation enzyme, NADH” value was 0.12 ± 0.010 µmol/min/mg and the “D-amino acid synthesis activity (specific activity), Six-mutation enzyme, NADPH” value turned out to be 0.32 ± 0.0082 µmol/min/mg.

In the case of `CCC(=O)C(=O)O` [2-oxobutanoic acid/D-2-aminobutyric acid, 2-oxobutanoic acid], in data set [1], the “D-amino acid synthesis activity (specific activity), Wild type, NADH” value is 0.13 ± 0.0041 µmol/min/mg and the “D-amino acid synthesis activity (specific activity), Wild type, NADPH” value is 2.3 ± 0.030 µmol/min/mg. Besides, in data set [2], the “D-amino acid synthesis activity (specific activity), Five-mutation enzyme, NADH” value is 0.044 ± 0.0049 µmol/min/mg and the “D-amino acid synthesis activity (specific activity), Five-mutation enzyme, NADPH” value turned out to be 0.13 ± 0.0020 µmol/min/mg. In addition, in data set [3], the “D-amino acid synthesis activity (specific activity), Six-mutation enzyme, NADH” value stood at 0.032 ± 0.0023 µmol/min/mg and the “D-amino acid synthesis activity (specific activity), Six-mutation enzyme, NADPH” value amounted to 0.077 ± 0.0041 µmol/min/mg.

In the case of `CC(=O)C(=O)O` [2-oxopropanoic acid/D-alanine, 2-oxopropanoic acid], in data set [1], the “D-amino acid synthesis activity (specific activity), Wild type, NADH” value was 0.49 ± 0.016 µmol/min/mg and the “D-amino acid synthesis activity (specific activity), Wild type, NADPH” value amounted to 5.3 ± 0.038 µmol/min/mg. In addition, in data set [2], the “D-amino acid synthesis activity (specific activity), Five-mutation enzyme, NADH” value amounted to 0.0077 ± 0.0015 µmol/min/mg and the “D-amino acid synthesis activity (specific activity), Five-mutation enzyme, NADPH” value stood at 0.071 ± 0.00074 µmol/min/mg. For the same molecule, in data set [3], the “D-amino acid synthesis activity (specific activity), Six-mutation enzyme, NADH” value came out at 0.0053 ± 0.0036 µmol/min/mg and the “D-amino acid synthesis activity (specific activity), Six-mutation enzyme, NADPH” value was 0.044 ± 0.0034 µmol/min/mg.

Consider `CCCCCCC(=O)C(=O)O` [2-oxooctanoic acid], for which, in data set [1], the “D-amino acid synthesis activity (specific activity), Wild type, NADH” value is reported as “No Activity” and the “D-amino acid synthesis activity (specific activity), Wild type, NADPH” value is 0.101 ± 0.010 µmol/min/mg. Moreover, in data set [2], the “D-amino acid synthesis activity (specific activity), Five-mutation enzyme, NADH” value stood at 0.017 ± 0.0027 µmol/min/mg and the “D-amino acid synthesis activity (specific activity), Five-mutation enzyme, NADPH” value was determined as 0.47 ± 0.012 µmol/min/mg. Also, in data set [3], the “D-amino acid synthesis activity (specific activity), Six-mutation enzyme, NADH” value turned out to be 0.0098 ± 0.0047 µmol/min/mg and the “D-amino acid synthesis activity (specific activity), Six-mutation enzyme, NADPH” value was 0.35 ± 0.0093 µmol/min/mg.

As to `CC(C)CC(=O)C(=O)O` [2-oxo-4-methylpentanoic acid/D-leucine, 2-oxo-4-methylpentanoic acid], in data set [1], the “D-amino acid synthesis activity (specific activity), Wild type, NADH” value stood at 0.27 ± 0.0064 µmol/min/mg and the “D-amino acid synthesis activity (specific activity), Wild type, NADPH” value amounted to 0.061 ± 0.00082 µmol/min/mg. For the same molecule, in data set [2], the “D-amino acid synthesis activity (specific activity), Five-mutation enzyme, NADH” value came to 0.11 ± 0.0027 µmol/min/mg and the “D-amino acid synthesis activity (specific activity), Five-mutation enzyme, NADPH” value amounted to 0.20 ± 0.0071 µmol/min/mg. Moreover, in data set [3], the “D-amino acid synthesis activity (specific activity), Six-mutation enzyme, NADH” value is recorded as “No Activity” and the “D-amino acid synthesis activity (specific activity), Six-mutation enzyme, NADPH” value stood at 0.11 ± 0.0013 µmol/min/mg.

B1: D-type amino acid dehydrogenase derived from T. lipolytica (Thermosyntropha lipolytica DSM 11003) (protein)
chain: MGEKIRVAIVGYGNIGRYALDAIKAAPDMELAGVVRRSSSLGDKPAELADVPVVGSIKELTGVKVALLCTPTRSVPEYAREILALGINTVDSYDIHGQLADLRLELDKVAKEHNAVAVISAGWDPGTDSMVRCMFEFMAPKGITYTNFGPGMSMGHSVAVKAVKGVKNALSMTIPLGTGVHRRMVYVELEPGADFAQVEKAVKTDPYFVKDETHVIQVEDVDALIDMGHGVLMERKGVSGGTHNQLLSFSMRINNPALTAQIMVASARASVKQKPGAYTMIQIPIIDYMYGDPDEIIRQLV
For orientation: Km means the substrate concentration at which the rate is half of its maximum. For orientation: kcat means the number of substrate molecules converted per active site and unit of time at saturation. By kcat/Km is commonly meant the second-order rate constant that governs catalysis at low substrate concentration. With B1, in data set [5], the Km turned out to be 5.68 mM, the kcat was 73.7 s⁻¹ and the catalytic efficiency (kcat/Km) was 13000 M⁻¹ s⁻¹. Further, in data set [6], the Michaelis constant (Km) was found to be 14.8 mM, the kcat turned out to be 77.5 s⁻¹ and the kcat/Km stood at 5220 M⁻¹ s⁻¹.
